In patent publication EP4475229A1, “QUINONE-TYPE MOLECULES FOR ZINC-ION AQUEOUS BATTERIES” (Centre National de la Recherche Scientifique, priority 2023, dated 2024):
In brackets after ≈: the same amount, converted by molar mass. Read-outs that look alike come from different tables or passages of the source.

Assays:
[1] = cited from earlier work
[2] = Solubility of literature quinones in aqueous electrolytes, reported or estimated from references
Protocol: However, such value can be roughly estimated in the case of ref [4] by using equilibration tests reported in the figure 2e of this publication for PTO molecules.
In the table, (a) is for Estimated at mAM/Vel= 3/0.5 mg/ml and (b) vs. the maximum observed capacity (c) Estimated from Fig2e ref [4], that is 3.6% capacity loss upon 24h rest (OCV) in reduced state.

[3] = for saturation limit in comparison with compound 2 (2,5 DTBHQ) / saturation limit: 1 week at room temperature; for saturation limit: argon
physchem = settings: water
[4] = 1.25 M Zn(CH3COO)2, pH 4-5, 10080 min

## Oc1ccc(O)cc1 [1,4-benzohydroquinone]
[1]; water, background statement
  solubility in water compared with 1,4-benzoquinone: six times more soluble

## O=c1c(=O)c2cccc3c2-c2c1cccc2c(=O)c3=O [PTO]
[1]; 2.5M Li2SO4, pH 7, ref [5]
  Solubility oxidized state: Soluble (Fig. S21)
[1]; 4.4M H2SO4, pH 0, ref [5]
  Solubility oxidized state: 0.0047 (Fig. S18) mmol/L
[2]; 2M ZnSO4, pH 4-5, ref [4]
  Solubility factor vs. 2,5 DTBHQ: >11
[2]; 2.5M Li2SO4, pH 7, ref [5]
  Solubility factor vs. 2,5 DTBHQ: > 10000
[2]; 4.4M H2SO4, pH 0, ref [5], presumed
  Solubility reduced state: Presumed Not soluble
[2]; estimated from ref [4], reduced state
  maximum solubility relative to compound 2 (2,5 DTBHQ): approx. 11 times

## NC1=C(N)C(=O)C(N)=C(N)C1=O [TABQ]
[1]; 1M ZnSO4, pH 4-5, ref [1]
  Solubility oxidized state: 1.7 mmol/L (≈ 286 µg/mL)
[2]; 1M ZnSO4, pH 4-5, ref [1]
  Solubility factor vs. 2,5 DTBHQ: ~100

## O=C1C(O)=C(O)C(=O)C(O)=C1O [THBQ]
[1]; 1M ZnSO4, pH 4-5, ref [1]
  Solubility oxidized state: 3.4 mmol/L (≈ 585 µg/mL)
[2]; 1M ZnSO4, pH 4-5, ref [1]
  Solubility factor vs. 2,5 DTBHQ: ~100

## CC(C)(C)C1=CC(=O)C(C(C)(C)C)=CC1=O [compound 1]
[3]; [4]
  Solubility oxidized state: 26 µM (≈ 5.73 µg/mL)
  Solubility reduced state: 204 µM (≈ 44.9 µg/mL)
[3]; acetate electrolytes
  saturation limit in comparison with compound 2 (2,5 DTBHQ): nearly ten times lower
[3]; acetic acid/potassium acetate pH 4.8, acetic acid/zinc acetate pH 4.5, zinc acetate 1.25 M pH 4.2
  saturation limit: 26.16 µmol/L
physchem
  solubility thermodynamic at 1 week: 5.7 µg/mL (≈ 25.9 µM)

## CC(C)(C)c1cc(O)ccc1O [compound 8]
[3]; [4]
  Solubility reduced state: 20400 µM (≈ 3390 µg/mL)
[3]; acetate electrolytes
  saturation limit in comparison with compound 2 (2,5 DTBHQ): ~100 times
  saturation limit: 20.4 mM/L

## O=C1C(=O)C(Cl)=C(Cl)C(Cl)=C1Cl [o-TCBQ]
[1]; 1M ZnSO4, pH 4-5, ref [1]
  Solubility oxidized state: 2.3 mmol/L (≈ 566 µg/mL)
[2]; 1M ZnSO4, pH 4-5, ref [1]
  Solubility factor vs. 2,5 DTBHQ: ~100

## O=C1C(Cl)=C(Cl)C(=O)C(Cl)=C1Cl [p-TCBQ]
[3]; pH 7
  Solubility oxidized state: Slightly soluble
